Test system: SMN protein
Assay: cellular SMN ELISA (SMN protein elevation)
Type: cell-based
Settings: myoblast cell line from SMNdelta7 mouse model, 24 hours treatment; for SMN activity Fold: fold activation over DMSO control
Procedure, shortened: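 Readout is fold SMN elevation versus DMSO plus EC50, measured by anti-SMN capture ELISA with 450 nm absorbance. Lysates came from a myoblast line of the SMNdelta7 mouse model after 24 h compound exposure, with dose ranges of 20 nM–10 μM (condition 1) or 100 pM–10 μM (condition 2).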

[1] = ELISA condition 2: compound concentration 100 pM-10 uM
[2] = ELISA condition 1: compound concentration range 20 nM-10 uM

| EC50 [2] [nM] | SMILES | EC50 [1] [nM] | SMN activity Fold [1] [Fold] | SMN activity Fold [2] [Fold] |
| --- | --- | --- | --- | --- |
| – | COc1cc(-c2cccnc2)cc(O)c1-c1ccc(N(C)C2CC(C)(C)NC(C)(C)C2)nn1 [Example 26-3, 3-methoxy-2-(6-(methyl(2,2,6,6-tetramethylpiperidin-4-yl)amino)pyridazin-3-yl)-5-(pyridin-3-yl)phenol] | 47 | 2.70 | – |
| – | CC1(C)CC(Oc2ccc(-c3ccc4cnccc4c3)nn2)CC(C)(C)N1 [Example 1-11, 6-(6-((2,2,6,6-tetramethylpiperidin-4-yl)oxy)pyridazin-3-yl)isoquinoline] | 3900 | 2.67 | – |
| – | CN(c1ccc(-c2ccc(C3=CCNCC3)cc2O)nn1)C1CC(C)(C)NC(C)(C)C1 [Example 41-15, 2-(6-(methyl(2,2,6,6-tetramethylpiperidin-4-yl)amino)pyridazin-3-yl)-5-(1,2,3,6-tetrahydropyridin-4-yl)phenol] | 145 | 2.56 | – |
| – | CN(c1ccc(-c2c(O)cc(-c3ccc(=O)n(C)c3)cc2F)nn1)C1CC(C)(C)NC(C)(C)C1 [Example 40-4, 5-(3-fluoro-5-hydroxy-4-(6-(methyl(2,2,6,6-tetramethylpiperidin-4-yl)amino)pyridazin-3-yl)phenyl)-1-methylpyridin-2(1H)-one] | 15 | 2.14 | – |
| – | Oc1cc(-n2cccn2)ccc1-c1ccc(C2=CCNCC2)nn1 [Example 19-1, 5-pyrazol-1-yl-2-[6-(1,2,3,6-tetrahydro-pyridin-4-yl)-pyridazin-3-yl]-phenol] | 477 | 2.77 | – |
| – | Oc1cc(-n2cccn2)ccc1-c1ccc(OC2CCNC2)nn1 (centres unmarked) [Example 17-5, 5-(1H-pyrazol-1-yl)-2-(6-(pyrrolidin-3-yloxy)pyridazin-3-yl)phenol] | 2440 | 2.78 | – |
| – | CCOc1cc(-c2ncc(C)o2)cc(O)c1-c1ccc(N(C)C2CC(C)(C)NC(C)(C)C2)nn1 [Example 27-2, 3-ethoxy-2-(6-(methyl(2,2,6,6-tetramethylpiperidin-4-yl)amino)pyridazin-3-yl)-5-(5-methyloxazol-2-yl)phenol] | 165 | 2.83 | – |
| – | Oc1cc2ccccc2cc1-c1ccc(CC2CCNCC2)nn1 [Example 21-1, 3-(6-(piperidin-4-ylmethyl)pyridazin-3-yl)naphthalen-2-ol] | 959 | 2.35 | – |
| – | COc1cc(O)c(-c2ccc(N(C)C3CC(C)(C)NC(C)(C)C3)nn2)c(OC)c1 [Example 3-9, 3,5-dimethoxy-2-{6-[methyl-(2,2,6,6-tetramethyl-piperidin-4-yl)-amino]-pyridazin-3-yl}-phenol] | 323 | 2.88 | – |
| – | Oc1cc(-n2cccn2)ccc1-c1ccc(OCC2CCNC2)nn1 (single isomer, unassigned) [Example 17-8, 5-(1H-pyrazol-1-yl)-2-(6-(pyrrolidin-3-ylmethoxy)pyridazin-3-yl)phenol] | 3150 | 2.18 | – |
| – | CC1CC(Oc2ccc(-c3ccc(-n4cccn4)cc3O)nn2)CCN1 (single isomer, unassigned) [Example 17-6] | 443 | 2.58 | – |
| – | CC1(C)CC(Oc2ccc(-c3cc4ccc(O)cc4cc3O)nn2)CC(C)(C)N1 [Example 20-1, 3-(6-((2,2,6,6-tetramethylpiperidin-4-yl)oxy)pyridazin-3-yl)naphthalene-2,7-diol] | 18 | 2.75 | – |
| – | CC1CC(Oc2ccc(-c3ccc(-n4cccn4)cc3O)nn2)CC(C)N1 (single isomer, unassigned) [Example 17-3, 2-(6-((2,6-Dimethylpiperidin-4-yl)oxy)pyridazin-3-yl)-5-(1H-pyrazol-1-yl)phenol] | 183 | 2.75 | – |
| – | CN(c1ccc(-c2ccc3cnc(OCc4ccccc4)cc3c2)nn1)C1CC(C)(C)NC(C)(C)C1 [Example 39-1, 6-(3-(benzyloxy)isoquinolin-6-yl)-N-methyl-N-(2,2,6,6-tetramethylpiperidin-4-yl)pyridazin-3-amine] | 1030 | 2.65 | – |
| – | CN(c1ccc(-c2ccc(-c3cncnc3)cc2O)nn1)C1CC(C)(C)NC(C)(C)C1 [Example 41-12, 2-(6-(methyl(2,2,6,6-tetramethylpiperidin-4-yl)amino)pyridazin-3-yl)-5-(pyrimidin-5-yl)phenol] | 103 | 2.92 | – |
| – | CN(c1ccc(-c2ccc(-c3cn(C)cn3)cc2O)nn1)C1CC(C)(C)NC(C)(C)C1 [Example 42-6, 2-(6-(methyl(2,2,6,6-tetramethylpiperidin-4-yl)amino)pyridazin-3-yl)-5-(1-methyl-1H-imidazol-4-yl)phenol] | 66 | 2.49 | – |

| EC50 [2] [nM] | SMILES | EC50 [1] [nM] | SMN activity Fold [1] [Fold] | SMN activity Fold [2] [Fold] |
| --- | --- | --- | --- | --- |
| – | CN(c1ccc(-c2cc(-c3cn[nH]c3)c(F)cc2O)nn1)C1CC(C)(C)NC(C)(C)C1 [Example 34-4, 5-fluoro-2-(6-(methyl(2,2,6,6-tetramethylpiperidin-4-yl)amino)pyridazin-3-yl)-4-(1H-pyrazol-4-yl)phenol] | 37 | 2.34 | – |
| 2440 | CC1(C)CC(Oc2ccc(-c3cc4ccccc4s3)nn2)CC(C)(C)N1 [Example 1-6, 3-(benzo[b]-thiophen-2-yl)-6-(2,2,6,6-tetra-methylpiperidin-4-yloxy)pyridazine] | – | – | 2.00 |
| – | COc1cc(-c2cnn(C3CCCC3)c2)cc(O)c1-c1ccc(N(C)C2CC(C)(C)NC(C)(C)C2)nn1 [Example 26-4, 5-(1-cyclopentyl-1H-pyrazol-4-yl)-3-methoxy-2-(6-(methyl(2,2,6,6-tetramethylpiperidin-4-yl)amino)pyridazin-3-yl)phenol] | 649 | 2.22 | – |
| – | CN(c1ccc(-c2cc(-n3cccn3)ccc2O)nn1)C1CC(C)(C)NC(C)(C)C1 [Example 16-4, 2-(6-(methyl(2,2,6,6-tetramethylpiperidin-4-yl)amino)pyridazin-3-yl)-4-(1H-pyrazol-1-yl)phenol] | 94 | 2.71 | – |
| – | Oc1cc(-n2cccn2)ccc1-c1ccc(N2CCC3(CCCN3)C2)nn1 (centres unmarked) [Example 18-11, 2-[6-(1,7-diaza-spiro[4.4]non-7-yl)-pyridazin-3-yl]-5-pyrazol-1-yl-phenol] | 320 | 2.53 | – |
| – | CN(c1ccc(-c2cc3ccc(OCCCN)cc3cc2O)nn1)C1CC(C)(C)NC(C)(C)C1 [Example 20-5, 7-(3-amino-propoxy)-3-{6-[methyl-(2,2,6,6-tetramethyl-piperidin-4-yl)-amino]-pyridazin-3-yl}-naphthalen-2-ol] | 6 | 2.66 | – |
| – | OCCN1CCC2(CCN(c3ccc(-c4ccc(-n5cccn5)cc4O)nn3)C2)C1 (centres unmarked) [Example 18-16, 2-(6-(7-(2-hydroxyethyl)-2,7-diazaspiro[4.4]-nonan-2-yl)pyridazin-3-yl)-5-(1H-pyrazol-1-yl)phenol] | 227 | 3.25 | – |
| – | CN(c1ccc(-c2ccc(-c3cncn3C)cc2O)nn1)C1CC(C)(C)NC(C)(C)C1 [Example 42-7, 2-(6-(methyl(2,2,6,6-tetramethylpiperidin-4-yl)amino)pyridazin-3-yl)-5-(1-methyl-1H-imidazol-5-yl)phenol] | 55 | 2.51 | – |
| – | CN(c1ccc(-c2ccc(-c3ccn(C)c(=O)c3)cc2O)nn1)C1CC(C)(C)NC(C)(C)C1 [Example 41-7, 4-(3-hydroxy-4-(6-(methyl(2,2,6,6-tetramethylpiperidin-4-yl)amino)pyridazin-3-yl)phenyl)-1-methylpyridin-2(1H)-one] | 7 | 2.87 | – |
| – | CN(c1ccc(-c2cc(F)c(-c3cn[nH]c3)cc2O)nn1)C1CC(C)(C)NC(C)(C)C1 [Example 34-2, 4-fluoro-2-(6-(methyl(2,2,6,6-tetramethylpiperidin-4-yl)amino)pyridazin-3-yl)-5-(1H-pyrazol-4-yl)phenol] | 2 | 2.49 | – |
| – | CN(c1ccc(-c2cc(-c3ccnc(O)c3)ccc2O)nn1)C1CC(C)(C)NC(C)(C)C1 [Example 32-7, 4-(4-hydroxy-3-(6-(methyl(2,2,6,6-tetramethylpiperidin-4-yl)amino)pyridazin-3-yl)phenyl)pyridin-2-ol] | 551 | 3.27 | – |
| – | CN(c1ccc(-c2ccc(C3=CCOCC3)cc2O)nn1)C1CC(C)(C)NC(C)(C)C1 [Example 41-17, 5-(3,6-dihydro-2H-pyran-4-yl)-2-(6-(methyl(2,2,6,6-tetramethylpiperidin-4-yl)amino)pyridazin-3-yl)phenol] | 170 | 2.88 | – |
| – | COc1cc(-c2cnn(C)c2)cc(O)c1-c1ccc(N(C)C2CC(C)(C)NC(C)(C)C2)nn1 [Example 26-1, 3-methoxy-2-(6-(methyl(2,2,6,6-tetramethylpiperidin-4-yl)amino)pyridazin-3-yl)-5-(1-methyl-1H-pyrazol-4-yl)phenol] | 14 | 3.18 | – |
| – | Oc1ccc2cc(-c3ccc(C4=CCNCC4)nn3)c(O)cc2c1 [Example 19-4, 3-(6-(1,2,3,6-tetrahydropyridin-4-yl)pyridazin-3-yl)naphthalene-2,7-diol] | 25 | 2.47 | – |
| – | CN(c1ccc(-c2ccc(-c3cnn(C)c3)cc2O)nn1)C1CC(C)(C)NC(C)(C)C1 [Example 16-2, 2-(6-(methyl(2,2,6,6-tetramethylpiperidin-4-yl)amino)pyridazin-3-yl)-5-(1-methyl-1H-pyrazol-4-yl)phenol] | 15 | 3.21 | – |
